Tests used:
[1] = Viscosity measurement (Brookfield viscometer, CPE52 spindle); format: physicochemical
Method: The viscometer used was Brookfield LVDV2TCP with a CPE52 spindle, or Brookfield RVDV2T with a CPE52 spindle.
C1imC2OE3C obtained in Synthesis Example 1 and OE2imC2OE3C obtained in Synthesis Example 2 were measured for viscosity at 80° C. The viscometer used was Brookfield LVDV2TCP with a CPE52 spindle. The viscometer was heated to 80° C. by passing warm water therethrough, and the viscosity of the samples was measured.

[2] = State of the zwitterions at 25° C.; format: physicochemical; settings: room temperature (25° C.)
Method: C1imC2OE3C (R^1═CH3, A=imidazolium cation, R^3═CH2CH2, n=3, and B=—COO^−) obtained in Synthesis Example 1 and OE2imC2OE3C(R^1═H3C(OCH2CH2)2, A=imidazolium cation, R^3═CH2CH2, n=3, and B=—COO^−) obtained in Synthesis Example 2 were both liquid at room temperature (25° C.).

[3] = Cellulose solubility (cellulose added in 1 wt % steps, heating and stirring 1 hour, visual); format: physicochemical
Method: The cellulose solubility of C1imC2OE3C obtained in Synthesis Example 1, OE2imC2OE3C obtained in Synthesis Example 2, and OE2imC3C (R^1═H3C(OCH2CH2)2, A=imidazolium cation, B=—COO^−, and n=0 (a compound having no oxyalkylene structure between the cationic and anionic moieties; the compound described in Non-Patent Literature 2)) as a comparative example was measured. […] The concentration at which cellulose dissolution was confirmed was visually measured.
Thus, when heating to 80° C., a stirrer rotated in C1imC2P and started to rotate smoothly at 120° C. Accordingly, a cellulose solubility experiment was performed at 120° C. Avicel was added in increments of 1 wt %, and when dissolved over 1 hour, additional Avicel was added in increments of 1 wt %. As a result of the experiment, C1imC2P dissolved 4 wt % Avicel.

[4] = TG-DTA pyrolysis temperature (weight loss on heating at 10° C./min); format: physicochemical
Method: Experimental method: Under N2 atmosphere, the temperature was increased to 500° C. at a rate of 10° C./min starting at room temperature. The pyrolysis point was evaluated at the intersection of the tangent lines between the steady state and the decomposition.
C1imC2OE3C obtained in Synthesis Example 1 was heated at a rate of 10° C./min, and the temperature at which the weight loss occurred (pyrolysis temperature) was measured. As a result, this compound was thermally decomposed at about 249° C. and was stable up to 249° C.

[5] = Differential scanning calorimetry; format: physicochemical
Method: Experimental method: Under N2 atmosphere, liquid nitrogen was used during cooling. After the temperature was increased at a rate of 10° C./min to 20° C. below the pyrolysis point starting at 25° C., two sets of “cooling to −100° C. at a rate of −10° C./min→heating to 20° C. below the pyrolysis point at a rate of 10° C./min” were repeated (holding time: 5 minutes for each stage), followed by cooling down to 25° C.
C1imC2OE3C obtained in Synthesis Example 1 was subjected to differential scanning calorimetry.

[6] = tested on: Kluyveromyces marxianus; assay: Toxicity to yeast (OD600 of culture in liquid medium); format: cell-based; settings: culturing at 50° C., concentration and time of the value not stated
Method: The toxicity of C1imC2P to yeast was examined. The yeast used was Kluyveromyces marxianus. C1imC2P was added to a liquid medium at concentrations of 0 mol/L, 0.01 mol/L, 0.05 mol/L, 0.1 mol/L, 0.5 mol/L and 1.0 mol/L respectively. This was inoculated with bacteria, and while culturing at 50° C., OD600 was measured with a plate reader 0, 2, 4, and 6 hours later. OD600 indicates the density of bacterial cells. Further, relative OD600 is a relative parameter when the control is 1.00. A higher value of relative OD600 indicates a lower toxicity of the zwitterion. The relative OD600 of C1imC2P was 0.77, indicating low toxicity.

Viscosity at 80° C. [1]	State at 25° C. [2]	stable (does not decompose) up to temperature [4]	pyrolysis temperature (temperature at which the weight loss occurred) ([4]; heated at a rate of 10° C./min)	did not change / in a liquid state from room temperature up to temperature [5]	Viscosity (in words) ([1]; 100 wt % zwitterion, room temperature (25° C.))	SMILES	Cellulose solubility ([3]; 100° C.)	Cellulose solubility ([3]; 120° C.)	relative OD600 (control is 1.00) [6]	Cellulose solubility (Avicel dissolved) ([3]; 120° C., Avicel added in increments of 1 wt %, 1 hour each)
810 mPa · s	liquid					COCCOCC[n+]1ccn(CCOCCOCCOCCC(=O)[O-])c1 [OE2imC2OE3C]	11 wt %	11 wt %		
940 mPa · s	solid					COCCOCCn1cc[n+](CCCC(=O)[O-])c1 [OE2imC3C, reference compound]	6 wt %	10 wt %		
2,500 mPa · s	liquid	up to 249 °C	about 249 °C	around 250 °C		C[n+]1ccn(CCOCCOCCOCCC(=O)[O-])c1 [Zwitterion C1imC2OE3C]	11 wt %	14 wt %		
	liquid				very high viscosity	C[n+]1ccn(CCOP(=O)([O-])O)c1 [Zwitterion C1imC2P]			0.77	4 wt %

From patent US20260167654A1, “PLANT CELL WALL-DISSOLVING AGENT” (Kanazawa University, priority 2022, published 2026)
